From paper PMC5063900, “A phase 1 study of the safety, tolerability, pharmacokinetics, and pharmacodynamics of TAK-063, a selective PDE10A inhibitor” (Psychopharmacology, 2016)

Test: Treatment-emergent adverse events, phase 1 single-rising-dose study in healthy subjects
Assay type: in vivo, human
Experimental: Healthy Japanese and non-Japanese subjects between 18 and 55 years of age were recruited to participate in the study. Criteria for exclusion included prior treatment with any investigational compound within 30 days of the first TAK-063 dose, a positive test for drugs of abuse or nicotine, and an increased risk for suicide. […] Following a washout period of 7 days, subjects in cohort 3 (100 mg) received the same dose (100 mg) but under fed conditions.
The study assessed safety and tolerability in all subjects for the 4-day study duration. The primary endpoints were the percentage of subjects who experienced at least one treatment-emergent adverse event (TEAE), as well as the percentage of subjects who met predefined criteria for safety laboratory tests, vital sign measurements, and safety parameters following TAK-063 administration. The secondary endpoints were PK parameters for TAK-063 and M-I, assessing drug exposure at each dose, and the effect of food coadministration on TAK-063 PK. Exploratory endpoints included the effects of TAK-063 on domains of cognition as assessed by a computerized battery, CNS Vital Signs (CNSVS).
Adverse events, clinical laboratory tests, vital signs, 12-lead electrocardiograms (ECGs), and Columbia-Suicide Severity Rating Scale (C-SSRS) were all monitored. Intensity of AEs was classified as mild, moderate, or severe, and each AE was classified as to its relation to study drug.
Laboratory tests evaluated hematology, serum chemistry, urine, and hormone levels. Vital signs and ECGs were collected at screening, check-in, within 1 h predose, serially postdose, and at study exit, while the C-SSRS was administered at screening, check-in, and study exit. Any events reported on the C-SSRS and clinically significant laboratory abnormalities were reported as AEs.

[1] = all subjects, single 30 mg dose (n = 11)
[2] = all subjects, single 100 mg dose (n = 11)
[3] = all subjects, single 300 mg dose (n = 11)
[4] = all subjects, single 1000 mg dose (n = 11)
[5] = non-Japanese subjects, TAK-063 Total (n = 36)
[6] = non-Japanese subjects, single 3 mg dose (n = 6)
[7] = non-Japanese subjects, single 10 mg dose (n = 6)
[8] = non-Japanese subjects, single 30 mg dose (n = 6)
[9] = non-Japanese subjects, single 100 mg dose (n = 6)
[10] = non-Japanese subjects, single 300 mg dose (n = 6)
[11] = non-Japanese subjects, single 1000 mg dose (n = 6)

COc1cn(-c2ccc(-n3cccn3)cc2F)nc(-c2ccnn2-c2ccccc2)c1=O [TAK-063]
Adverse event: Somnolence [1]: 4 (36.4) n (%) | Adverse event: Vomiting [1]: 0 n (%) | Adverse event: Anxiety [2]: 0 n (%) | Adverse event: Blurred vision [2]: 0 n (%) | Adverse event: Dizziness [2]: 0 n (%) | Adverse event: Dysarthria [2]: 0 n (%) | Adverse event: Epistaxis [2]: 0 n (%) | Adverse event: Headache [2]: 1 (9.1) n (%) | Adverse event: Hypotension [2]: 1 (9.1) n (%) | Adverse event: Muscle tightness [2]: 0 n (%) | Adverse event: Nausea [2]: 0 n (%) | Adverse event: Orthostatic hypotension [2]: 1 (9.1) n (%) | Adverse event: Orthostatic tachycardia [2]: 2 (18.2) n (%) | Adverse event: Somnolence [2]: 7 (63.6) n (%) | Adverse event: Vomiting [2]: 1 (9.1) n (%) | Adverse event: Anxiety [3]: 0 n (%) | Adverse event: Blurred vision [3]: 0 n (%) | Adverse event: Dizziness [3]: 1 (9.1) n (%) | Adverse event: Dysarthria [3]: 0 n (%) | Adverse event: Epistaxis [3]: 0 n (%) | Adverse event: Headache [3]: 1 (9.1) n (%) | Adverse event: Hypotension [3]: 0 n (%) | Adverse event: Muscle tightness [3]: 0 n (%) | Adverse event: Nausea [3]: 0 n (%) | Adverse event: Orthostatic hypotension [3]: 1 (9.1) n (%) | Adverse event: Orthostatic tachycardia [3]: 1 (9.1) n (%) | Adverse event: Somnolence [3]: 5 (45.5) n (%) | Adverse event: Vomiting [3]: 1 (9.1) n (%) | Adverse event: Anxiety [4]: 1 (9.1) n (%) | Adverse event: Blurred vision [4]: 1 (9.1) n (%) | Adverse event: Dizziness [4]: 1 (9.1) n (%) | Adverse event: Dysarthria [4]: 1 (9.1) n (%) | Adverse event: Epistaxis [4]: 0 n (%) | Adverse event: Headache [4]: 0 n (%) | Adverse event: Hypotension [4]: 0 n (%) | Adverse event: Muscle tightness [4]: 0 n (%) | Adverse event: Nausea [4]: 1 (9.1) n (%) | Adverse event: Orthostatic hypotension [4]: 5 (45.5) n (%) | Adverse event: Orthostatic tachycardia [4]: 7 (63.6) n (%) | Adverse event: Somnolence [4]: 6 (54.5) n (%) | Adverse event: Vomiting [4]: 1 (9.1) n (%) | Total incidence of TEAEs (non-Japanese subjects treated with TAK-063): 52.8% | Adverse event: Anxiety [5]: 1 (2.8) n (%) | Adverse event: Blurred vision [5]: 1 (2.8) n (%) | Adverse event: Dizziness [5]: 2 (5.6) n (%) | Adverse event: Dysarthria [5]: 1 (2.8) n (%) | Adverse event: Headache [5]: 1 (2.8) n (%) | Adverse event: Hypotension [5]: 1 (2.8) n (%) | Adverse event: Nausea [5]: 2 (5.6) n (%) | Adverse event: Orthostatic hypotension [5]: 3 (8.3) n (%) | Adverse event: Orthostatic tachycardia [5]: 8 (22.2) n (%) | Adverse event: Somnolence [5]: 12 (33.3) n (%) | Adverse event: Vomiting [5]: 1 (2.8) n (%) | Adverse event: Anxiety [6]: 0 n (%) | Adverse event: Blurred vision [6]: 0 n (%) | Adverse event: Dizziness [6]: 0 n (%) | Adverse event: Dysarthria [6]: 0 n (%) | Adverse event: Headache [6]: 0 n (%) | Adverse event: Hypotension [6]: 0 n (%) | Adverse event: Nausea [6]: 0 n (%) | Adverse event: Orthostatic hypotension [6]: 0 n (%) | Adverse event: Orthostatic tachycardia [6]: 2 (33.3) n (%) | Adverse event: Somnolence [6]: 0 n (%) | Adverse event: Vomiting [6]: 0 n (%) | Adverse event: Anxiety [7]: 0 n (%) | Adverse event: Blurred vision [7]: 0 n (%) | Adverse event: Dizziness [7]: 0 n (%) | Adverse event: Dysarthria [7]: 0 n (%) | Adverse event: Headache [7]: 0 n (%) | Adverse event: Hypotension [7]: 0 n (%) | Adverse event: Nausea [7]: 0 n (%) | Adverse event: Orthostatic hypotension [7]: 0 n (%) | Adverse event: Orthostatic tachycardia [7]: 0 n (%) | Adverse event: Somnolence [7]: 0 n (%) | Adverse event: Vomiting [7]: 0 n (%) | Adverse event: Anxiety [8]: 0 n (%) | Adverse event: Blurred vision [8]: 0 n (%) | Adverse event: Dizziness [8]: 1 (16.7) n (%) | Adverse event: Dysarthria [8]: 0 n (%) | Adverse event: Headache [8]: 0 n (%) | Adverse event: Hypotension [8]: 0 n (%) | Adverse event: Nausea [8]: 2 (33.3) n (%) | Adverse event: Orthostatic hypotension [8]: 0 n (%) | Adverse event: Orthostatic tachycardia [8]: 0 n (%) | Adverse event: Somnolence [8]: 3 (50.0) n (%) | Adverse event: Vomiting [8]: 0 n (%) | Adverse event: Anxiety [9]: 0 n (%) | Adverse event: Blurred vision [9]: 0 n (%) | Adverse event: Dizziness [9]: 0 n (%) | Adverse event: Dysarthria [9]: 0 n (%) | Adverse event: Headache [9]: 0 n (%) | Adverse event: Hypotension [9]: 1 (16.7) n (%) | Adverse event: Nausea [9]: 0 n (%) | Adverse event: Orthostatic hypotension [9]: 0 n (%) | Adverse event: Orthostatic tachycardia [9]: 2 (33.3) n (%) | Adverse event: Somnolence [9]: 3 (50.0) n (%) | Adverse event: Vomiting [9]: 0 n (%) | Adverse event: Anxiety [10]: 0 n (%) | Adverse event: Blurred vision [10]: 0 n (%) | Adverse event: Dizziness [10]: 1 (16.7) n (%) | Adverse event: Dysarthria [10]: 0 n (%) | Adverse event: Headache [10]: 1 (16.7) n (%) | Adverse event: Hypotension [10]: 0 n (%) | Adverse event: Nausea [10]: 0 n (%) | Adverse event: Orthostatic hypotension [10]: 0 n (%) | Adverse event: Orthostatic tachycardia [10]: 0 n (%) | Adverse event: Somnolence [10]: 3 (50.0) n (%) | Adverse event: Vomiting [10]: 1 (16.7) n (%) | Adverse event: Anxiety [11]: 1 (16.7) n (%) | Adverse event: Blurred vision [11]: 1 (16.7) n (%) | Adverse event: Dizziness [11]: 0 n (%) | Adverse event: Dysarthria [11]: 1 (16.7) n (%) | Adverse event: Headache [11]: 0 n (%) | Adverse event: Hypotension [11]: 0 n (%) | Adverse event: Nausea [11]: 0 n (%) | Adverse event: Orthostatic hypotension [11]: 3 (50.0) n (%) | Adverse event: Orthostatic tachycardia [11]: 4 (66.7) n (%) | Adverse event: Somnolence [11]: 3 (50.0) n (%) | Adverse event: Vomiting [11]: 0 n (%) | Association with hyperprolactinemia, hyperglycemia, or other metabolic disturbances (single dose): not associated | Deaths, serious AEs (single doses 3 to 1000 mg): No deaths or other serious AEs were reported | Maximum tolerated dose (single doses up to 1000 mg): not defined | Safety and tolerability (single doses up to 1000 mg): safe and well tolerated
